According to PMC10866072, “Design, synthesis, molecular modelling and biological evaluation of novel 6-amino-5-cyano-2-thiopyrimidine derivatives as potent anticancer agents against leukemia and apoptotic inducers” (Journal of Enzyme Inhibition and Medicinal Chemistry, 2024):

Legend:
CCRF-CEM = format: cell-based; settings: Homo sapiens, one dose 10^-5 M, 48 h
HL-60(TB) = format: cell-based; settings: Homo sapiens, one dose 10^-5 M, 48 h
K-562 = format: cell-based; settings: Homo sapiens, K562, one dose 10^-5 M, 48 h
MOLT-4 = format: cell-based; settings: Homo sapiens, one dose 10^-5 M, 48 h, read-out: % growth
RPMI-8226 = format: cell-based; settings: Homo sapiens, one dose 10^-5 M, 48 h
SR = format: cell-based; settings: Homo sapiens, one dose 10^-5 M, 48 h
A549/ATCC = format: cell-based; settings: Homo sapiens, one dose 10^-5 M, 48 h
EKVX = format: cell-based; settings: Homo sapiens, one dose 10^-5 M, 48 h
HOP-62 = format: cell-based; settings: Homo sapiens, one dose 10^-5 M, 48 h
HOP-92 = format: cell-based; settings: Homo sapiens, one dose 10^-5 M, 48 h
NCI-H226 = format: cell-based; settings: Homo sapiens, one dose 10^-5 M, 48 h
NCI-H23 = format: cell-based; settings: Homo sapiens, one dose 10^-5 M, 48 h, read-out: % growth
NCI-H460 = format: cell-based; settings: Homo sapiens, one dose 10^-5 M, 48 h, read-out: % growth
NCI-H522 = format: cell-based; settings: Homo sapiens, one dose 10^-5 M, 48 h
HCC-2998 = format: cell-based; settings: Homo sapiens, one dose 10^-5 M, 48 h
HCT-116 = format: cell-based; settings: Homo sapiens, one dose 10^-5 M, 48 h, read-out: % growth
HCT-15 = format: cell-based; settings: Homo sapiens, one dose 10^-5 M, 48 h, read-out: % growth
HT29 = format: cell-based; settings: Homo sapiens, HT-29, one dose 10^-5 M, 48 h
KM12 = format: cell-based; settings: Homo sapiens, one dose 10^-5 M, 48 h
SW-620 = format: cell-based; settings: Homo sapiens, one dose 10^-5 M, 48 h
SF-268 = format: cell-based; settings: Homo sapiens, one dose 10^-5 M, 48 h, read-out: % growth
SF-295 = format: cell-based; settings: Homo sapiens, one dose 10^-5 M, 48 h
SF-539 = format: cell-based; settings: Homo sapiens, one dose 10^-5 M, 48 h
SNB-19 = format: cell-based; settings: Homo sapiens, one dose 10^-5 M, 48 h, read-out: % growth
SNB-75 = format: cell-based; settings: Homo sapiens, one dose 10^-5 M, 48 h
U251 = format: cell-based; settings: Homo sapiens, U-251, one dose 10^-5 M, 48 h
LOX IMVI = format: cell-based; settings: Homo sapiens, one dose 10^-5 M, 48 h, read-out: % growth
MALME-3M = format: cell-based; settings: Homo sapiens, one dose 10^-5 M, 48 h
M14 = format: cell-based; settings: Homo sapiens, one dose 10^-5 M, 48 h
MDA-MB-435 = format: cell-based; settings: Homo sapiens, one dose 10^-5 M, 48 h, read-out: % growth
SK-MEL-2 = format: cell-based; settings: Homo sapiens, one dose 10^-5 M, 48 h
SK-MEL-28 = format: cell-based; settings: Homo sapiens, one dose 10^-5 M, 48 h
SK-MEL-5 = format: cell-based; settings: Homo sapiens, one dose 10^-5 M, 48 h, read-out: % growth
UACC-257 = format: cell-based; settings: Homo sapiens, one dose 10^-5 M, 48 h
UACC-62 = format: cell-based; settings: Homo sapiens, one dose 10^-5 M, 48 h
IGROV1 = format: cell-based; settings: Homo sapiens, IGROV-1, one dose 10^-5 M, 48 h, read-out: % growth
OVCAR-3 = format: cell-based; settings: Homo sapiens, one dose 10^-5 M, 48 h
OVCAR-4 = format: cell-based; settings: Homo sapiens, one dose 10^-5 M, 48 h
OVCAR-5 = format: cell-based; settings: Homo sapiens, one dose 10^-5 M, 48 h
OVCAR-8 = format: cell-based; settings: Homo sapiens, one dose 10^-5 M, 48 h
SK-OV-3 = format: cell-based; settings: Homo sapiens, one dose 10^-5 M, 48 h
786-0 = format: cell-based; settings: Homo sapiens, one dose 10^-5 M, 48 h
A498 = format: cell-based; settings: Homo sapiens, one dose 10^-5 M, 48 h
ACHN = format: cell-based; settings: Homo sapiens, one dose 10^-5 M, 48 h
CAKI-1 = format: cell-based; settings: Homo sapiens, CAKI-1, 48 h, one dose 10^-5 M, 48 h
RXF 393 = format: cell-based; settings: Homo sapiens, RXF 393, 48 h, one dose 10^-5 M, 48 h, read-out: % growth
SN12C = format: cell-based, human; settings: Homo sapiens, one dose 10^-5 M, 48 h
TK-10 = format: cell-based; settings: Homo sapiens, one dose 10^-5 M, 48 h
UO-31 = format: cell-based; settings: Homo sapiens, UO-31, 48 h, one dose 10^-5 M, 48 h
PC-3 = format: cell-based; settings: Homo sapiens, one dose 10^-5 M, 48 h
DU-145 = format: cell-based; settings: Homo sapiens, one dose 10^-5 M, 48 h
MCF7 = format: cell-based; settings: Homo sapiens, one dose 10^-5 M, 48 h, read-out: % growth
MDA-MB-231/ATCC = format: cell-based; settings: Homo sapiens, one dose 10^-5 M, 48 h
HS 578T = format: cell-based; settings: Homo sapiens; one dose 10^-5 M, 48 h; HS 578T; read-out: % growth
T-47D = format: cell-based; settings: Homo sapiens, T47D, one dose 10^-5 M, 48 h, read-out: % growth
MDA-MB-468 = format: cell-based; settings: Homo sapiens, one dose 10^-5 M, 48 h
[1] = test system: full NCI 60 cell lines panel; settings: for activity at 10 µM: Homo sapiens, 60 cell, 48 h, read-out: Mean % growth; for activity on all 60 cancer cell lines tested (in words): one dose
COLO 205 = format: cell-based; settings: Homo sapiens, one dose 10^-5 M, 48 h
NCI/ADR-RES = format: cell-based; settings: Homo sapiens, one dose 10^-5 M, 48 h
BT-549 = format: cell-based; settings: Homo sapiens, one dose 10^-5 M, 48 h

COc1ccc(C=NNC(=N)c2c(N)nc(S)nc2-c2ccc(Cl)cc2)cc1 [Compound 4j, 4-amino-6–(4-chlorophenyl)-2-mercapto-N'-[(4-methoxyphenyl)methylene] pyrimidine-5-carboximidohydrazide]
% cell growth at 10 µM (CCRF-CEM): 89.7%
% growth at 10 µM (HL-60(TB)): 111%
% growth at 10 µM (K-562): 95%
activity at 10 µM (MOLT-4): 101%
% growth at 10 µM (RPMI-8226): 91.2%
percent cell growth at 10 µM (SR): 97.3%
% growth at 10 µM (A549/ATCC): 107%
% cell growth at 10 µM (EKVX): 94.8%
% growth at 10 µM (HOP-62): 90.3%
% growth at 10 µM (HOP-92): 107%
% growth at 10 µM (NCI-H226): 125%
activity at 10 µM (NCI-H23): 103%
activity at 10 µM (NCI-H460): 119%
% growth at 10 µM (NCI-H522): 101%
% growth at 10 µM (HCC-2998): 113%
activity at 10 µM (HCT-116): 107%
activity at 10 µM (HCT-15): 95.6%
% growth at 10 µM (HT29): 105%
% growth at 10 µM (KM12): 100%
% growth at 10 µM (SW-620): 112%
activity at 10 µM (SF-268): 113%
% cell growth at 10 µM (SF-295): 97.5%
% growth at 10 µM (SF-539): 101%
activity at 10 µM (SNB-19): 90.5%
% growth at 10 µM (SNB-75): 103%
% growth at 10 µM (U251): 107%
activity at 10 µM (LOX IMVI): 104%
% growth at 10 µM (MALME-3M): 105%
% growth at 10 µM (M14): 109%
activity at 10 µM (MDA-MB-435): 104%
% growth at 10 µM (SK-MEL-2): 110%
% cell growth at 10 µM (SK-MEL-28): 111%
activity at 10 µM (SK-MEL-5): 102%
percent cell growth at 10 µM (UACC-257): 110%
% growth at 10 µM (UACC-62): 92.9%
activity at 10 µM (IGROV1): 91.5%
% growth at 10 µM (OVCAR-3): 110%
% growth at 10 µM (OVCAR-4): 99.6%
percent cell growth at 10 µM (OVCAR-5): 102%
% growth of cells at 10 µM (OVCAR-8): 101%
% growth at 10 µM (SK-OV-3): 93.7%
% growth at 10 µM (786-0): 104%
% growth at 10 µM (A498): 125%
% growth at 10 µM (ACHN): 97.4%
% growth at 10 µM (CAKI-1): 91.9%
activity at 10 µM (RXF 393): 124%
% growth at 10 µM (SN12C): 93.6%
% cell growth at 10 µM (TK-10): 143%
% cell growth at 10 µM (UO-31): 77.5%
percent cell growth at 10 µM (PC-3): 82.6%
% growth at 10 µM (DU-145): 118%
activity at 10 µM (MCF7): 86.6%
% growth at 10 µM (MDA-MB-231/ATCC): 91.3%
activity at 10 µM (HS 578T): 107%
activity at 10 µM (T-47D): 86.8%
percent cell growth at 10 µM (MDA-MB-468): 114%
activity at 10 µM [1]: 103%
activity on all 60 cancer cell lines tested (in words) [1]: weak activity

CN(C)c1ccc(-c2cc([N+](=O)[O-])ccc2C=NNC(=N)c2cnc(S)nc2N)cc1 [Compound 4c, 4-amino-N'-[6-[4-(dimethylamino)phenyl]-(4-nitrophenyl)methylene]-2-mercapto pyrimidine-5-carboximidohydrazide]
% cell growth at 10 µM (CCRF-CEM): 84.4%
% growth at 10 µM (HL-60(TB)): 96.4%
% growth at 10 µM (K-562): 104%
activity at 10 µM (MOLT-4): 109%
% growth at 10 µM (RPMI-8226): 97%
percent cell growth at 10 µM (SR): 107%
% growth at 10 µM (A549/ATCC): 104%
% cell growth at 10 µM (EKVX): 100%
% growth at 10 µM (HOP-62): 102%
% growth at 10 µM (HOP-92): 118%
% growth at 10 µM (NCI-H226): 112%
activity at 10 µM (NCI-H23): 104%
activity at 10 µM (NCI-H460): 108%
% growth at 10 µM (NCI-H522): 96%
% growth at 10 µM (COLO 205): 127%
activity at 10 µM (HCT-116): 106%
activity at 10 µM (HCT-15): 98.5%
% growth at 10 µM (HT29): 109%
% growth at 10 µM (KM12): 100%
% growth at 10 µM (SW-620): 109%
activity at 10 µM (SF-268): 87.8%
% cell growth at 10 µM (SF-295): 92.4%
% growth at 10 µM (SF-539): 98.8%
activity at 10 µM (SNB-19): 97.2%
% growth at 10 µM (SNB-75): 100%
% growth at 10 µM (U251): 106%
activity at 10 µM (LOX IMVI): 99.3%
% growth at 10 µM (MALME-3M): 108%
% growth at 10 µM (M14): 110%
activity at 10 µM (MDA-MB-435): 102%
% growth at 10 µM (SK-MEL-2): 114%
% cell growth at 10 µM (SK-MEL-28): 112%
activity at 10 µM (SK-MEL-5): 103%
percent cell growth at 10 µM (UACC-257): 106%
% growth at 10 µM (UACC-62): 100%
activity at 10 µM (IGROV1): 102%
% growth at 10 µM (OVCAR-3): 106%
% growth at 10 µM (OVCAR-4): 101%
percent cell growth at 10 µM (OVCAR-5): 110%
% growth of cells at 10 µM (OVCAR-8): 95.8%
cell growth percent at 10 µM (NCI/ADR-RES): 102%
% growth at 10 µM (SK-OV-3): 95.7%
% growth at 10 µM (786-0): 95.7%
% growth at 10 µM (A498): 124%
% growth at 10 µM (ACHN): 103%
% growth at 10 µM (CAKI-1): 99.6%
% growth at 10 µM (SN12C): 99.5%
% cell growth at 10 µM (TK-10): 102%
% cell growth at 10 µM (UO-31): 75.4%
percent cell growth at 10 µM (PC-3): 94.1%
% growth at 10 µM (DU-145): 108%
activity at 10 µM (MCF7): 92%
% growth at 10 µM (MDA-MB-231/ATCC): 111%
activity at 10 µM (HS 578T): 95.2%
% cell growth at 10 µM (BT-549): 112%
activity at 10 µM (T-47D): 101%
percent cell growth at 10 µM (MDA-MB-468): 108%
activity at 10 µM [1]: 103%
activity on all 60 cancer cell lines tested (in words) [1]: weak activity
